Literature values, collected in US20240016760A1, “Multivitamin” (priority 2022, published 2024).

Columns and labels:
CFTR Chloride channels = CFTR Chloride channels (Homo sapiens, UniProt P13569); settings: increase from zero, at the appropriate concentrations
CFTR protein = settings: patients with CF

CFTR Chloride channels, sequence (P13569 whole entry): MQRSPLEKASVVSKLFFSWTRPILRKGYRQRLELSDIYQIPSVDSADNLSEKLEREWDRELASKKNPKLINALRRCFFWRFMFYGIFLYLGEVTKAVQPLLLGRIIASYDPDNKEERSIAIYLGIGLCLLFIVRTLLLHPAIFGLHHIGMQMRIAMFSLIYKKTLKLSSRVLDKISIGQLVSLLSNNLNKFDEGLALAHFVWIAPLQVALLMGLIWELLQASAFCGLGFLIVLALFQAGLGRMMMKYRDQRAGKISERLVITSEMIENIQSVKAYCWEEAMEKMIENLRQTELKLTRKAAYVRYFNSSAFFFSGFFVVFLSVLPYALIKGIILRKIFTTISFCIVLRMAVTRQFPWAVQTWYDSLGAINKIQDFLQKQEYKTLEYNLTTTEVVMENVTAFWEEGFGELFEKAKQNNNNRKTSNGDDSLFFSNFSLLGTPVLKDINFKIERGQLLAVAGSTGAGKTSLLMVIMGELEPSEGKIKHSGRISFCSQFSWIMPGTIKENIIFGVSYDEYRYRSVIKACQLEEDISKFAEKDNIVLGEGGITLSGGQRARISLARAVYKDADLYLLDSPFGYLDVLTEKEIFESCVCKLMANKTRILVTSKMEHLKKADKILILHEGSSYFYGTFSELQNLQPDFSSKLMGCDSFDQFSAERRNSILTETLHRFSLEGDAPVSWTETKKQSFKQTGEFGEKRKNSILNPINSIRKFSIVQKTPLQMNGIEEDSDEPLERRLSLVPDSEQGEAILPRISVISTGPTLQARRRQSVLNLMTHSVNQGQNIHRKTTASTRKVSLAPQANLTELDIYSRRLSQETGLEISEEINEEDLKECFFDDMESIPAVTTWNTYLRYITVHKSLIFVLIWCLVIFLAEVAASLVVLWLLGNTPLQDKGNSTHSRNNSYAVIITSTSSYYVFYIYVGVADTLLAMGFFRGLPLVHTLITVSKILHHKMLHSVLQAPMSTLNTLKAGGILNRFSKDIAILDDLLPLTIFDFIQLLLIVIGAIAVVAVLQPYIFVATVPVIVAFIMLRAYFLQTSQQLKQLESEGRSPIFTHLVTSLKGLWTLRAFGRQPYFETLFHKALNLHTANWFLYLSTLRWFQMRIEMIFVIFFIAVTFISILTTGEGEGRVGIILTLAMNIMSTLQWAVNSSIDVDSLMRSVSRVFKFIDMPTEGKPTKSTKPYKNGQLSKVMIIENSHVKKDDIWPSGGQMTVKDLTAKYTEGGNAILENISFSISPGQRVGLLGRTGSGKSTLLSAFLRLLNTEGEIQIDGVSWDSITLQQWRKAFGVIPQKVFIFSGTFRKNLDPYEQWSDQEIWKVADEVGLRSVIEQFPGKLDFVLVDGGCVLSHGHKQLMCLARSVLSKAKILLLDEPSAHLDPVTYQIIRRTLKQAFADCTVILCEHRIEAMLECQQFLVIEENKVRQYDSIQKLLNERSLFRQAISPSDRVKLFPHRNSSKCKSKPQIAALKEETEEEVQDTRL

| Structure (SMILES) | average open probability of CFTR Chloride channels (CFTR Chloride channels) | average increase in lung function (as measured by FEV1) (CFTR protein) |
| --- | --- | --- |
| O=C1O[C@H]([C@@H](O)CO)C(O)=C1O [vitamin C] | 0.21 (+0.08) |  |
| CC(C)(C)c1cc(C(C)(C)C)c(NC(=O)c2c[nH]c3ccccc3c2=O)cc1O [Ivacaftor, ivacaftor] |  | ~2% |
